Reference: patent US8906868B2, “Aminoglycoside derivatives” (Rempex Pharmaceuticals, Inc., priority 2010, dated 2014)
In brackets after ≈: the same amount, converted by molar mass. Where two headings read alike, the source gives them in different places.

Key:
ECM6006 aph(3′)-III = assay: microbe, parasite or virus in culture; assay type: cell-based, Escherichia coli; settings: Escherichia coli
In short: (§1)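 Broth microdilution MICs per CLSI M7-A7, 2-fold dilutions in cation-adjusted Mueller Hinton broth, inoculum 5×10^5 CFU/ml, 18 h at 35 °C. Strains express aminoglycoside-modifying enzymes; MIC read by turbidity at 600 nm and confirmed visually.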

ECM6009 aac(3)-II = assay: microbe, parasite or virus in culture; assay type: cell-based, Escherichia coli; settings: Escherichia coli
In short: as §1

ECM6010 ant(2″)-I = assay: microbe, parasite or virus in culture; assay type: cell-based, Escherichia coli; settings: Escherichia coli
In short: as §1

ECM6011 aph(3′)-I = assay: microbe, parasite or virus in culture; assay type: cell-based, Escherichia coli; settings: Escherichia coli
In short: as §1

EC1002 aph(3′)-IV = assay: organism not typed; assay type: cell-based; settings: read-out: Compound MIC on Bacterial Strains: EC1002 aph(3′)-IV
In short: as §1

EC1001 acc(6′)-Ib = assay: microbe, parasite or virus in culture; assay type: cell-based, Escherichia coli; settings: Escherichia coli
In short: (§2)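 CLSI broth microdilution used 2-fold serial dilutions in cation-adjusted Mueller Hinton broth with an inoculum of 5×10^5 CFU/ml. Plates were incubated 18 hours at 35° C. MIC was read by turbidity at 600 nm and confirmed visually.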

[1] = tested on: ECM6007 aac(6′) + aph(2″); assay: microbe, parasite or virus in culture; assay type: cell-based, Escherichia coli; settings: Escherichia coli
In short: as §2

ACM1006 acc(6′)-Ib = assay: microbe, parasite or virus in culture; assay type: cell-based, Acinetobacter baumannii; settings: Acinetobacter baumannii
In short: as §2

[2] = tested on: Acinetobacter spp. AB1051 aph(3′)VI; assay: MIC, strains expressing aminoglycoside modifying enzymes; assay type: cell-based; settings: read-out: MIC Acinetobacter spp. AB1051 aph(3′)VI
Procedure: (§3) To compare microbiological activity of the test compounds, minimum inhibitory concentrations (MIC.s) were determined. Antibiotic MICs were obtained using the broth microdilution method according to Clinical and Laboratory Standards Institute (CLSI) approved guidelines (Methods for dilution antimicrobial susceptibility tests for bacteria that grow aerobically; approved standard—7th ed. CLSI document M7-A7. Clinical and Laboratory Standards Institute, Wayne, Pa., incorporated herein by reference in its entirety). Antibiotics were dissolved as specified by CLSI (Performance standards for antimicrobial susceptibility testing; Seventeenth informational supplement. CLSI document M100-S17. Clinical and Laboratory Standards Institute, Wayne, Pa., incorporated herein by reference in its entirety), and were serially diluted 2-fold in cation adjusted Mueller Hinton Broth (CaMHB) at 2× concentration. Bacterial inoculums were prepared in CaMHB by suspension of a colony from an agar plate that was prepared the previous day to obtain a final concentration of 5×10^5CFU/ml. The plates were incubated for 18 hours at 35° C. […] MIC.s were determined by reading the turbidity of plate wells using a SpectraMax Plus384 plate reader (Molecular Devices, Sunnyvale, Calif., USA) at 600 nm and were confirmed by visual inspection.

[3] = tested on: Escherichia coli ECM6004 aac(2′); assay: as above; assay type: cell-based; settings: read-out: MIC Escherichia coli ECM6004 aac(2′)
Procedure: as §3

[4] = tested on: Pseudomonas aeruginosa pa1062 aac(3)-I; assay: as above; assay type: cell-based; settings: read-out: MIC Pseudomonas aeruginosa pa1062 aac(3)-I
Procedure: as §3

[5] = tested on: 143 clinical isolates of various species of Enterobacteriacea; assay: MIC against clinical isolates of Enterobacteriacea; assay type: cell-based; settings: for MIC50: MIC of 50% population; for MIC50 / MIC90: 143 clinical isolates of Enterobacteriacea; for MIC90: MIC of 90% population; for share of strains of Enterobacteriacae in which the compound was more potent than the other (44 vs. 45): by ratio of MICs
Procedure: as §3
Table 9 summarizes results of testing 44 and 45 against 143 clinical isolates of various species of Enterobacteriacea.

[6] = Aminoglycoside cytotoxicity in HK-2 cells (Alamar Blue); assay type: cell-based, Human; settings: human
Procedure: (§4) Human kidney cortex proximal tubule cells (HK-2) were purchased from ATCC and maintained according to manufacturer's recommendations in Keratinocyte Serum-Free Media (SFM; Invitrogen), with 0.05 mg/ml bovine pituitary extract and 5 ng/ml of Epidermal growth factor.
(§5) Solutions of aminoglycosides at a concentration of 50 mg/mL (both control and novel test compounds) were prepared in sterile deionized water. Before treatment of cells, the concentrated drug solutions were diluted to the appropriate concentration in Keratinocyte SFM {20, 10, 5, 2.5, 1.25, 0.6, 0.3, and 0 mM}. Pentamidine was used as a positive control.
(§6) HK-2 cells were seeded at 2.5*10^4 cells/well density in 96-well plates in Keratinocyte SFM and placed in a 37° C. tissue culture CO2 incubator. […]. Each treatment was performed in duplicate. […] Drug solutions were aspirated and replaced with 0.1 ml of 5% Alamar Blue (Abd Serotec) cell proliferation reagent in Keratinocyte SFM. Plates were read on a Molecular Devices Gemini EM fluorometer pre-warmed at 37° C. at […]. Plates were read at 0 and 4 hrs, and were incubated at 37° C. in a CO2 incubator in between reads. The fluorescence signal at the 0 h timepoint was subtracted from that at 4 h to account for background fluorescence.
(§7) The cytotoxicity data were reported as the amount of drug producing a 50% decrease in Alamar Blue signal relative to the no drug treatment control.

[7] = tested on: Human kidney cortex proximal tubule cells (HK-2); assay: as above; assay type: cell-based
Procedure: as §4, §5, §6, §7

[8] = tested on: Escherichia coli (ATCC 25922); assay: MIC, broth microdilution; settings: Escherichia coli
[9] = tested on: Staphylococcus aureus (ATCC 29213); assay: MIC, broth microdilution; settings: Staphylococcus aureus
[10] = read-out: Compound MIC on Bacterial Strains: ECM6006 aph(3′)-III
[11] = read-out: MIC Escherichia coli ECM6006 aph(3′)-III
[12] = read-out: Compound MIC on Bacterial Strains: ECM6009 aac(3)-II
[13] = read-out: MIC Escherichia coli ECM6009 aac(3)-II, aph(3′)
[14] = read-out: Compound MIC on Bacterial Strains: ECM6010 ant(2″)-I
[15] = read-out: MIC Escherichia coli ECM6010 ant(2″)
[16] = read-out: Compound MIC on Bacterial Strains: ECM6011 aph(3′)-I
[17] = read-out: MIC Escherichia coli ECM6011 aph(3′)-I
[18] = Table 4, read-out: Compound MIC on Bacterial Strains: Escherichia coli EC1001 acc(6′)-Ib
[19] = Table 8, read-out: MIC Escherichia coli EC1001 aac(6′)-Ib
[20] = 18 h, Table 4, read-out: Compound MIC on Bacterial Strains: Escherichia coli ECM6007 aac(6′) + aph(2″)
[21] = Table 8, read-out: MIC Escherichia coli ECM6007 aac(6′) + aph(2″)
[22] = Table 4, read-out: Compound MIC on Bacterial Strains: Acinetobacter baumannii ACM1006 acc(6′)-Ib
[23] = Table 8, read-out: MIC Acinetobacter baumannii ACM1006 aac(6′)-Ib
[24] = ATCC25922, read-out: Compound MIC on Bacterial Strains: E. coli ATCC 25922
[25] = ATCC25922, read-out: Compound MIC on Bacterial Strains: ECM6000 ATCC 25922
[26] = ATCC25922, read-out: Compound MIC on Bacterial Strains: Escherichia coli ECM6000 ATCC 25922
[27] = ATCC25922, read-out: MIC Escherichia coli ECM6025 ATCC 25922
[28] = ATCC29213, read-out: Compound MIC on Bacterial Strains: S. aureus ATCC 29213, QC strain, Table 2
[29] = ATCC29213, read-out: Compound MIC on Bacterial Strains: Staphylococcus aureus SAM1000 ATCC 29213, Table 5
[30] = ATCC29213, read-out: MIC Staphylococcus aureus SAM1000 ATCC 29213, Table 7

Compound: CN[C@@H]1C(O)[C@@H](OC2C(O)C(O[C@H]3O[C@H](CNC[C@@H](O)CO)CCC3N)[C@@H](N)C[C@H]2NC(=O)[C@@H](O)CN)OCC1(C)O (stereo partly drawn) [Compound 44]
- MIC (ECM6006 aph(3′)-III; [10]): < 1 µg/mL
- MIC (ECM6006 aph(3′)-III; [11]): 1 to 8 µg/mL (≈ 1.64 to 13.1 µM)
- MIC (ECM6009 aac(3)-II; [12]): < 1 µg/mL
- MIC (ECM6009 aac(3)-II; [13]): < 1 µg/mL
- MIC (ECM6010 ant(2″)-I; [14]): < 1 µg/mL
- MIC (ECM6010 ant(2″)-I; [15]): < 1 µg/mL
- MIC (ECM6011 aph(3′)-I; [16]): < 1 µg/mL
- MIC (ECM6011 aph(3′)-I; [17]): < 1 µg/mL
- MIC (EC1002 aph(3′)-IV): < 1 µg/mL
- MIC (EC1001 acc(6′)-Ib; [18]): < 1 µg/mL
- MIC (EC1001 acc(6′)-Ib; [19]): < 1 µg/mL
- MIC [1, 20]: < 1 µg/mL
- MIC [1, 21]: < 1 µg/mL
- MIC (ACM1006 acc(6′)-Ib; [22]): 1 to 8 µg/mL (≈ 1.64 to 13.1 µM)
- MIC (ACM1006 acc(6′)-Ib; [23]): 1 to 8 µg/mL (≈ 1.64 to 13.1 µM)
- MIC [2]: 1 to 8 µg/mL (≈ 1.64 to 13.1 µM)
- MIC [3]: < 1 µg/mL
- MIC [4]: > 8 µg/mL
- MIC50 [5]: 0.5 µg/mL
- MIC90 [5]: 2 µg/mL
- share of strains of Enterobacteriacae in which the compound was more potent than the other (44 vs. 45) [5]: ~75%
- IC50 at 24 h [6]: > 20 mM
- cytotoxicity in HK-2 cells (in words) [7]: essentially non-cytotoxic
- MIC [8, 24]: < 1 µg/mL
- MIC [8, 25]: < 1 µg/mL
- MIC [8, 26]: < 1 µg/mL
- MIC [8, 27]: < 1 µg/mL
- MIC [9, 28]: < 1 µg/mL
- MIC [9, 29]: < 1 µg/mL
- MIC [9, 30]: < 1 µg/mL

Compound: CN[C@@H]1[C@@H](O)[C@@H](O[C@@H]2[C@@H](O)[C@H](O[C@H]3O[C@H](CNC[C@H](O)CO)CC[C@H]3N)[C@@H](N)C[C@H]2NC(=O)[C@@H](O)CN)OC[C@]1(C)O [Compound 45, (S)-3-amino-N-((1R,2S,3S,4R,5S)-5-amino-4-((2R,3R,6S)-3-amino-6-(((S)-2,3-dihydroxypropylamino)methyl)tetrahydro-2H-pyran-2-yloxy)-2-((2R,3R,4R,5R)-3,5-dihydroxy-5-methyl-4-(methylamino)tetrahydro-2H-pyran-2-yloxy)-3-hydroxycyclohexyl)-2-hydroxypropanamide]
- MIC (ECM6006 aph(3′)-III; [10]): < 1 µg/mL
- MIC (ECM6006 aph(3′)-III; [11]): 1 to 8 µg/mL (≈ 1.64 to 13.1 µM)
- MIC (ECM6009 aac(3)-II; [12]): < 1 µg/mL
- MIC (ECM6009 aac(3)-II; [13]): < 1 µg/mL
- MIC (ECM6010 ant(2″)-I; [14]): < 1 µg/mL
- MIC (ECM6010 ant(2″)-I; [15]): < 1 µg/mL
- MIC (ECM6011 aph(3′)-I; [16]): < 1 µg/mL
- MIC (ECM6011 aph(3′)-I; [17]): < 1 µg/mL
- MIC (EC1002 aph(3′)-IV): 1 to 8 µg/mL (≈ 1.64 to 13.1 µM)
- MIC (EC1001 acc(6′)-Ib; [18]): 1 to 8 µg/mL (≈ 1.64 to 13.1 µM)
- MIC (EC1001 acc(6′)-Ib; [19]): 1 to 8 µg/mL (≈ 1.64 to 13.1 µM)
- MIC [1, 20]: < 1 µg/mL
- MIC [1, 21]: < 1 µg/mL
- MIC (ACM1006 acc(6′)-Ib; [22]): 1 to 8 µg/mL (≈ 1.64 to 13.1 µM)
- MIC (ACM1006 acc(6′)-Ib; [23]): 1 to 8 µg/mL (≈ 1.64 to 13.1 µM)
- MIC [2]: 1 to 8 µg/mL (≈ 1.64 to 13.1 µM)
- MIC [3]: < 1 µg/mL
- MIC [4]: > 8 µg/mL
- MIC50 [5]: 1 µg/mL
- MIC90 [5]: 2 µg/mL
- share of strains of Enterobacteriacae in which the compound was more potent than the other (44 vs. 45) [5]: less than 2%
- IC50 at 24 h [6]: 10 mM
- fold more cytotoxic than compound 44 ([7]; human, 48 h): at least 2 fold
- MIC [8, 24]: < 1 µg/mL
- MIC [8, 25]: < 1 µg/mL
- MIC [8, 26]: < 1 µg/mL
- MIC [8, 27]: < 1 µg/mL
- MIC [9, 28]: 1 to 8 µg/mL (≈ 1.64 to 13.1 µM)
- MIC [9, 29]: 1 to 8 µg/mL (≈ 1.64 to 13.1 µM)
- MIC [9, 30]: 1 to 8 µg/mL (≈ 1.64 to 13.1 µM)
